Structures can show the parent of a compound that is named as a salt. Where two headings read alike, the source gives them in different places.
Columns and labels:
HiBit-BRM fusion protein = target: T1, HiBit-BRM fusion protein (Homo sapiens, UniProt P51531); experiment: HiBiT-BRM cell-based degradation assay (Nano-Glo HiBiT Lytic Detection, 24 h); settings: HeLa cells expressing HiBiT-BRM; for DC50: read-out: BRM HiBit Degradation IC50; for BRM HiBit Degradation Maximum measured: top dose 30 μM
T1 construct: expressed in transfected cells
In short: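 HeLa cells stably expressing HiBiT-BRM were treated for 24 h with compounds (10-point 3-fold dilutions, 30 μM final top dose, in duplicate). HiBiT was detected by lytic LgBiT complementation luminescence. % degradation was normalized to DMSO (high control) and 2 μM of a reference BRM/BRG1 degrader (low control).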

[1] = target: T2, HiBit-BRG1 fusion protein (Homo sapiens, UniProt P51532); experiment: HiBiT-BRG1 cell-based degradation assay (Nano-Glo HiBiT Lytic Detection, 24 h); settings: for Dmax: HeLa, top dose 30 μM, read-out: BRG1 HiBit Degradation Maximum measured
T2 construct: expressed in transfected cells
In short: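 Stable HeLa line expressing HiBiT-BRG1 and LgBiT, seeded at 5000 cells/well; luminescence read after lytic Nano-Glo HiBiT reagent and 10 min shaking at RT. % degradation normalised between DMSO (high control) and 2 μM reference BRM/BRG1 degrader (low control).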

[2] = HeLa cells expressing HiBit-BRG1 and LgBit, read-out: BRG1 HiBit Degradation IC50
[3] = HeLa cells expressing HiBit-BRG1 and LgBit

T1 sequence (P51531 whole entry, the tested form may be a part): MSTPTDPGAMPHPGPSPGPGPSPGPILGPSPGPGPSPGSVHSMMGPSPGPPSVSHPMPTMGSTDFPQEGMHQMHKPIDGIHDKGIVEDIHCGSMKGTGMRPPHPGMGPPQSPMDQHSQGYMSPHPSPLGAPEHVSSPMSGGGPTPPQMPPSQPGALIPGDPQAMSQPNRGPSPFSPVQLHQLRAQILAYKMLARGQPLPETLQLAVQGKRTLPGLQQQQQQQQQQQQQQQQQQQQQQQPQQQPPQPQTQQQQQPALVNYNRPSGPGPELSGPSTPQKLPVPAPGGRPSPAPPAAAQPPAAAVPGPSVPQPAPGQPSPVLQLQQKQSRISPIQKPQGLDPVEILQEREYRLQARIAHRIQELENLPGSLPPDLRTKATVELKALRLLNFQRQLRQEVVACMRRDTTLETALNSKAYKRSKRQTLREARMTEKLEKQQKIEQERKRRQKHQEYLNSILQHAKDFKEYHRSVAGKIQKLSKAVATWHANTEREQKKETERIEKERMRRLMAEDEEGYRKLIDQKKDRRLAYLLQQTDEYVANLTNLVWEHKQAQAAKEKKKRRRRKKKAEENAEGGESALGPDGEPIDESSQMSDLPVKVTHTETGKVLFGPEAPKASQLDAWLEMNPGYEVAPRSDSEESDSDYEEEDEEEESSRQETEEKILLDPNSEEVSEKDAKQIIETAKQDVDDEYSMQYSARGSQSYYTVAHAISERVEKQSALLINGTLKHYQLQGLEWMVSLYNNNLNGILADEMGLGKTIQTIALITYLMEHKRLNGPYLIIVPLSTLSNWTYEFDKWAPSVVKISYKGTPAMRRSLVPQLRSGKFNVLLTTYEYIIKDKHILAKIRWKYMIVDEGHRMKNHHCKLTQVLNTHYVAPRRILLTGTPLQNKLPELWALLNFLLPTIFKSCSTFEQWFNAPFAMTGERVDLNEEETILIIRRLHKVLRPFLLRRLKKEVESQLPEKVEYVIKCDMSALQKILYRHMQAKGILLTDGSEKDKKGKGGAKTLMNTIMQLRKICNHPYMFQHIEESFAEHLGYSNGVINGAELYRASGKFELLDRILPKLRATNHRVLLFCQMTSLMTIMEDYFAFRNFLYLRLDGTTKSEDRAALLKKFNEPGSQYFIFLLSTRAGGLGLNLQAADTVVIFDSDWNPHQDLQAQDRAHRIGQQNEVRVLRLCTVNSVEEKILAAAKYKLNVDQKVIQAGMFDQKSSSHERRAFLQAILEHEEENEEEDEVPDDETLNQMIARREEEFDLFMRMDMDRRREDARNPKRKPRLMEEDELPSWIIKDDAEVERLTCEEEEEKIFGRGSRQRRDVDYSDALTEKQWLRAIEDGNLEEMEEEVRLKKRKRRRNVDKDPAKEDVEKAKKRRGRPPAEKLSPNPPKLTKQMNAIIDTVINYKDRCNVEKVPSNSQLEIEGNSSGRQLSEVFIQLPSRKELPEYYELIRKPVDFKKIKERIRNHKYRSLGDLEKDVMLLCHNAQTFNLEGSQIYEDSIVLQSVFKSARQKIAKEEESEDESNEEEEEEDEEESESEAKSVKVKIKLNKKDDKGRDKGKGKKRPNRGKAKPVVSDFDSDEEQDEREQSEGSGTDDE
T2 sequence (P51532 whole entry, the tested form may be a part): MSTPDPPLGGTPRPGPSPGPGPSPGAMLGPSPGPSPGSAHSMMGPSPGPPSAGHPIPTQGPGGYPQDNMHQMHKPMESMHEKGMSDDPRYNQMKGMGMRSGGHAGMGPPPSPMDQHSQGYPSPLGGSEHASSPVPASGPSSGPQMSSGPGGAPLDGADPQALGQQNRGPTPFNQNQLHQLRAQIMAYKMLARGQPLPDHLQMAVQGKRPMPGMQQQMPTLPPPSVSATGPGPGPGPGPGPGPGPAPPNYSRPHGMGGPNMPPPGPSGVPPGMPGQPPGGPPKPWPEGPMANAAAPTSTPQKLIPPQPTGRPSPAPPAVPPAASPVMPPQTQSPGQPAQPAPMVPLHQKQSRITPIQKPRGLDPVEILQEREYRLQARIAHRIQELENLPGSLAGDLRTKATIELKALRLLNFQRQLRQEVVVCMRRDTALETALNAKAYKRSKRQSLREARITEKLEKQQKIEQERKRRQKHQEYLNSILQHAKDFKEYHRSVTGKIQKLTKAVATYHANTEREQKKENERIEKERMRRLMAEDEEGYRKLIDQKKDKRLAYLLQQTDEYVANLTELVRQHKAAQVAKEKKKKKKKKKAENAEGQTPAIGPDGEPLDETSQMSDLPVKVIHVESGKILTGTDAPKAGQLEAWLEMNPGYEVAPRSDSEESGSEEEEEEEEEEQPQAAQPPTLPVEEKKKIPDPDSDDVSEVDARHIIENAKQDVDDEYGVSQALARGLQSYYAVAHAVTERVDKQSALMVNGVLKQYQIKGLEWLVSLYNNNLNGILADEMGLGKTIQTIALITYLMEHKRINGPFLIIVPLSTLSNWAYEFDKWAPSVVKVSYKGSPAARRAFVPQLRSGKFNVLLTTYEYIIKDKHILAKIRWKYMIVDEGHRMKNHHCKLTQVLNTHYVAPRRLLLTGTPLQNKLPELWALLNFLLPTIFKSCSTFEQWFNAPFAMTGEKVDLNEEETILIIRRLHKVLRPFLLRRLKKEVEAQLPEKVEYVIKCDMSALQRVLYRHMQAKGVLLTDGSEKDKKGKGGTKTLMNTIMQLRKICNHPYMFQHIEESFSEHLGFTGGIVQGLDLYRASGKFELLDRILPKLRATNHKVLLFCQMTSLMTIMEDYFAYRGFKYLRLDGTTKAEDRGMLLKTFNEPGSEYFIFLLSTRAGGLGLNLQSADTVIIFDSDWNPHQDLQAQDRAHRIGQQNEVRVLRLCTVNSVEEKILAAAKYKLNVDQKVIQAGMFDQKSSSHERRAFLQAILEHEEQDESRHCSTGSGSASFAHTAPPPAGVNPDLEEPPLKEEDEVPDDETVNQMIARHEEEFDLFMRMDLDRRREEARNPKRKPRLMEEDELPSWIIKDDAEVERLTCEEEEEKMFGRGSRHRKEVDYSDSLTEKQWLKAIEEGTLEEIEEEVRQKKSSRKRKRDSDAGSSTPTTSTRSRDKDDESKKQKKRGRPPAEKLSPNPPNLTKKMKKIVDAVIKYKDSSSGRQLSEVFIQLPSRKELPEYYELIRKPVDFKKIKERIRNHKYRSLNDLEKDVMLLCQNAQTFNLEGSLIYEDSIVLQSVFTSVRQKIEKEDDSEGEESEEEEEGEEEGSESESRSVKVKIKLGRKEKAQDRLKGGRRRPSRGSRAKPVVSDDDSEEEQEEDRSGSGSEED

Compound | DC50 (HiBit-BRM fusion protein) [µM] | BRM HiBit Degradation Maximum measured (HiBit-BRM fusion protein) | DC50 [1, 2] [µM] | Dmax [1, 3] [%] | DC50 ([1]; read-out: BRG1 HiBit Degradation IC50, HeLa cells expressing HiBit-BRG1 and LgBit) [µM]
CS(=O)(=O)n1ccc(C(=O)N[C@@H](COCc2ccc(C(=O)N3CCN(CCOc4ccc5c(c4)C(=O)N(C4CCC(=O)NC4=O)C5=O)CC3)cc2)C(=O)Nc2nc(-c3ccccc3)cs2)c1 (stereo partly drawn) [Compound 191, (2S)-3-([4-[4-(2-[[2-(2,6-dioxopiperidin-3-yl)-1,3-dioxoisoindol-5-yl]oxy]ethyl)piperazine-1-carbonyl]phenyl]methoxy)-2-[(1-methanesulfonylpyrrol-3-yl)formamido]-N-(4-phenyl-1,3-thiazol-2-yl)propanamide; formic acid] | > 10 | C (‘C’ = Maximum degradation <50%) | > 10 | < 50 | –
CS(=O)(=O)n1ccc(C(=O)N[C@@H](COCc2ccc(C(=O)N3CCC(CN4CCN(c5ccc6c(c5)C(=O)N(C5CCC(=O)NC5=O)C6=O)CC4)CC3)cc2)C(=O)Nc2nc(-c3ccccc3)cs2)c1 (stereo partly drawn) [Compound 192, (2S)-3-([4-[4-([4-[2-(2,6-dioxopiperidin-3-yl)-1,3-dioxoisoindol-5-yl]piperazin-1-yl]methyl)piperidine-1-carbonyl]phenyl]methoxy)-2-[(1-methanesulfonylpyrrol-3-yl)formamido]-N-(4-phenyl-1,3-thiazol-2-yl)propanamide; formic acid] | > 10 | C (‘C’ = Maximum degradation <50%) | > 10 | < 50 | –
CS(=O)(=O)n1ccc(C(=O)N[C@@H](COCc2ccc(C(=O)N3CC(CN4CCN(c5ccc6c(c5)C(=O)N(C5CCC(=O)NC5=O)C6=O)CC4)C3)cc2)C(=O)Nc2nc(-c3ccccc3)cs2)c1 (stereo partly drawn) [Compound 193, (2S)-3-([4-[3-([4-[2-(2,6-dioxopiperidin-3-yl)-1,3-dioxoisoindol-5-yl]piperazin-1-yl]methyl)azetidine-1-carbonyl]phenyl]methoxy)-2-[(1-methanesulfonylpyrrol-3-yl)formamido]-N-(4-phenyl-1,3-thiazol-2-yl)propanamide; formic acid] | 0.1 to 1 | B (‘B’ = Maximum degradation ≥50% and ≤75%) | 0.1 to 1 | > 75 | –
CS(=O)(=O)n1ccc(C(=O)N[C@@H](COCc2ccc(C(=O)N3CC(Oc4ccc5c(c4)C(=O)N(C4CCC(=O)NC4=O)C5=O)C3)cc2)C(=O)Nc2nc(-c3ccccc3)cs2)c1 (stereo partly drawn) [Compound 194, N-((2S)-3-((4-(3-((2-(2,6-dioxopiperidin-3-yl)-1,3-dioxoisoindolin-5-yl)oxy)azetidine-1-carbonyl)benzyl)oxy)-1-oxo-1-((4-phenylthiazol-2-yl)amino)propan-2-yl)-1-(methylsulfonyl)-1H-pyrrole-3-carboxamide] | > 10 | C (‘C’ = Maximum degradation <50%) | > 10 | < 50 | –
CS(=O)(=O)n1ccc(C(=O)N[C@@H](COCc2ccc(C(=O)N3CCC(CCCCN4CCN(c5ccc6c(c5)C(=O)N(C5CCC(=O)NC5=O)C6=O)CC4)CC3)cc2)C(=O)Nc2nc(-c3ccccc3)cs2)c1 (stereo partly drawn) [Compound 195, N-((2S)-3-((4-(4-(4-(4-(2-(2,6-dioxopiperidin-3-yl)-1,3-dioxoisoindolin-5-yl)piperazin-1-yl)butyl)piperidine-1-carbonyl)benzyl)oxy)-1-oxo-1-((4-phenylthiazol-2-yl)amino)propan-2-yl)-1-(methylsulfonyl)-1H-pyrrole-3-carboxamide formate] | > 10 | C (‘C’ = Maximum degradation <50%) | > 10 | < 50 | –
CS(=O)(=O)n1ccc(C(=O)N[C@@H](COCc2ccc(C(=O)NCCOCCOCCNC(=O)COc3cccc4c3C(=O)N(C3CCC(=O)NC3=O)C4=O)cc2)C(=O)Nc2nc(-c3ccccc3)cs2)c1 (stereo partly shown) [Compound 196] | > 10 | C (‘C’ = Maximum degradation <50%) | > 10 | < 50 | –
CS(=O)(=O)n1ccc(C(=O)N[C@@H](COCc2ccc(C(=O)N3CC(COc4ccc5c(c4)C(=O)N(C4CCC(=O)NC4=O)C5=O)C3)cc2)C(=O)Nc2nc(-c3ccccc3)cs2)c1 (stereo partly drawn) [Compound 198, (2S)-3-([4-[3-([[2-(2,6-dioxopiperidin-3-yl)-1,3-dioxoisoindol-5-yl]oxy]methyl)azetidine-1-carbonyl]phenyl]methoxy)-2-[(1-methanesulfonylpyrrol-3-yl)formamido]-N-(4-phenyl-1,3-thiazol-2-yl)propanamide] | > 10 | C (‘C’ = Maximum degradation <50%) | – | – | > 10

Continued, in another order:

DC50 (HiBit-BRM fusion protein) [µM] | BRM HiBit Degradation Maximum measured (HiBit-BRM fusion protein) | DC50 [1, 2] [µM] | Dmax [1, 3] [%] | Compound | DC50 ([1]; read-out: BRG1 HiBit Degradation IC50, HeLa cells expressing HiBit-BRG1 and LgBit) [µM]
> 10 | C (‘C’ = Maximum degradation <50%) | > 10 | < 50 | CS(=O)(=O)n1ccc(C(=O)N[C@@H](COCc2ccc(C(=O)N3CC(COc4cccc5c4C(=O)N(C4CCC(=O)NC4=O)C5=O)C3)cc2)C(=O)Nc2nc(-c3ccccc3)cs2)c1 (stereo partly drawn) [Compound 197, (2S)-3-([4-[3-([[2-(2,6-dioxopiperidin-3-yl)-1,3-dioxoisoindol-4-yl]oxy]methyl)azetidine-1-carbonyl]phenyl]methoxy)-2-[(1-methanesulfonylpyrrol-3-yl)formamido]-N-(4-phenyl-1,3-thiazol-2-yl)propanamide] | –
> 10 | C (‘C’ = Maximum degradation <50%) | > 10 | < 50 | CS(=O)(=O)n1ccc(C(=O)N[C@@H](COCc2ccc(C(=O)N3CCC4(CC3)CC(Oc3ccc5c(c3)C(=O)N(C3CCC(=O)NC3=O)C5=O)C4)cc2)C(=O)Nc2nc(-c3ccccc3)cs2)c1 (stereo partly drawn) [Compound 199, (2S)-3-[[4-(2-[[2-(2,6-dioxopiperidin-3-yl)-1,3-dioxoisoindol-5-yl]oxy]-7-azaspiro[3.5]nonane-7-carbonyl)phenyl]methoxy]-2-[(1-methanesulfonylpyrrol-3-yl)formamido]-N-(4-phenyl-1,3-thiazol-2-yl)propanamide] | –
> 10 | C (‘C’ = Maximum degradation <50%) | > 10 | < 50 | CS(=O)(=O)n1ccc(C(=O)N[C@@H](COCc2ccc(C(=O)NCCOc3ccc4c(c3)C(=O)N(C3CCC(=O)NC3=O)C4=O)cc2)C(=O)Nc2nc(-c3ccccc3)cs2)c1 (stereo partly drawn) [Compound 200, N-(2-[[2-(2,6-dioxopiperidin-3-yl)-1,3-dioxoisoindol-5-yl]oxy]ethyl)-4-[[(2S)-2-[(1-methanesulfonylpyrrol-3-yl)formamido]-2-[(4-phenyl-1,3-thiazol-2-yl)carbamoyl]ethoxy]methyl]benzamide] | –
0.1 to 1 | A (‘A’ = Maximum degradation >75%) | < 0.1 | > 75 | CS(=O)(=O)n1ccc(C(=O)N[C@@H](COCc2ccc(C(=O)NCCCCCCNc3ccc4c(c3)C(=O)N(C3CCC(=O)NC3=O)C4=O)cc2)C(=O)Nc2nc(-c3ccccc3)cs2)c1 (stereo partly drawn) [Compound 201, N-(6-[[2-(2,6-dioxopiperidin-3-yl)-1,3-dioxoisoindol-5-yl]amino]hexyl)-4-[[(2S)-2-[(1-methanesulfonylpyrrol-3-yl)formamido]-2-[(4-phenyl-1,3-thiazol-2-yl)carbamoyl]ethoxy]methyl]benzamide] | –
> 10 | C (‘C’ = Maximum degradation <50%) | > 10 | < 50 | CS(=O)(=O)n1ccc(C(=O)N[C@@H](COCc2ccc(C(=O)NCCOCCOCCOCCNC(=O)COc3ccc4c(c3)C(=O)N(C3CCC(=O)NC3=O)C4=O)cc2)C(=O)Nc2nc(-c3ccccc3)cs2)c1 (stereo partly drawn) [Compound 202, (2S)-3-[(4-[[2-(2-[2-[2-(2-[[2-(2,6-dioxopiperidin-3-yl)-1,3-dioxoisoindol-5-yl]oxy]acetamido)ethoxy]ethoxy]ethoxy)ethyl]carbamoyl]phenyl)methoxy]-2-[(1-methanesulfonylpyrrol-3-yl)formamido]-N-(4-phenyl-1,3-thiazol-2-yl)propanamide] | –
> 10 | C (‘C’ = Maximum degradation <50%) | > 10 | < 50 | CS(=O)(=O)n1ccc(C(=O)N[C@@H](COCc2ccc(C(=O)NCCOCCOCCNC(=O)COc3ccc4c(c3)C(=O)N(C3CCC(=O)NC3=O)C4=O)cc2)C(=O)Nc2nc(-c3ccccc3)cs2)c1 (stereo partly drawn) [Compound 203, (2S)-3-([4-[(2-[2-[2-(2-[[2-(2,6-dioxopiperidin-3-yl)-1,3-dioxoisoindol-5-yl]oxy]acetamido)ethoxy]ethoxy]ethyl)carbamoyl]phenyl]methoxy)-2-[(1-methanesulfonylpyrrol-3-yl)formamido]-N-(4-phenyl-1,3-thiazol-2-yl)propanamide] | –
> 10 | C (‘C’ = Maximum degradation <50%) | 0.1 to 1 | 50 to 75 | CS(=O)(=O)n1ccc(C(=O)N[C@@H](COCc2ccc(C(=O)NCCCC#Cc3ccc4c(c3)C(=O)N(C3CCC(=O)NC3=O)C4=O)cc2)C(=O)Nc2nc(-c3ccccc3)cs2)c1 (stereo partly drawn) [Compound 204, N-[5-[2-(2,6-dioxopiperidin-3-yl)-1,3-dioxoisoindol-5-yl]pent-4-yn-1-yl]-4-[[(2S)-2-[(1-methanesulfonylpyrrol-3-yl)formamido]-2-[(4-phenyl-1,3-thiazol-2-yl)carbamoyl]ethoxy]methyl]benzamide] | –
